In patent US7547513B2, “Mutants of deoxycytidine kinase having extended enzymatic activity” (priority 2001, dated 2009):
Converted amounts (≈) assume the structure as drawn. “And” between values parts separate entries of the source, which are not always exact repeats. Equal entries are not always repeated.

Key:
Assay type in all cases: cell-based
[1] = system: Escherichia coli β7338 Δdeo tdk cdd::Tn10 pSUDCK4 (dck:D133E-R104Q); conditions: strain β7338, dck allele D133E R104Q; 18 h 37° C., MS medium + IPTG
Procedure: (§1) The culture was then diluted 100 times in the same medium supplemented with IPTG and distributed on 96-well microplates in a final volume of 100 μl in a series of dilutions from to 2 to 2 nucleotide analogues. Each analogue was tested twice. After incubation for 18 hours at 37° C. with stirring, the MIC was determined as corresponding to the lowest analogue concentration for which no turbidity was detectable.
(§2) The toxicity of nucleoside analogues, deviating either by the sugar or by the base, was evaluated in strains of genotype Δdeo tdk cdd expressing on a plasmid the different dckH alleles, wild-type allele, D133E, R104Q and double mutant.
(§3) The minimum inhibitory concentrations, expressed in microM, were determined as indicated in the section Materials and Methods.

[2] = system: Escherichia coli β7334 Δdeo tdk cdd::Tn10 pSUTrc (dck allele: none); conditions: strain β7334, dck allele none; 18 h 37° C., MS medium + IPTG
Procedure: as §1, §2, §3

[3] = system: Escherichia coli β7344 Δdeo tdk cdd::Tn10 (dckH none, amkG T39A); assay: microbe, parasite or virus in culture; conditions: for minimum inhibitory concentration (MIC): strain β7344, dckH none, amkG T39A
Procedure: as §1
(§4) We jointly expressed, within the genetic context Δdeo tdk cdd each of the four alleles of dckH with each of the two wt and T39A alleles of amkG, and tested the toxicity of the different nucleoside analogues already tested previously (Table 4 below).
as §3

[4] = system: Escherichia coli β7339 Δdeo tdk cdd::Tn10 (dckH none, amkG wt); assay: microbe, parasite or virus in culture; conditions: for minimum inhibitory concentration (MIC): strain β7339, dckH none, amkG wt
Procedure: as §1, §4, §3

[5] = system: Escherichia coli β7345 Δdeo tdk cdd::Tn10 (dckH wt, amkG T39A); assay: microbe, parasite or virus in culture; conditions: for minimum inhibitory concentration (MIC): strain β7345, dckH wt, amkG T39A
Procedure: as §1, §4, §3

[6] = system: Escherichia coli β7347 Δdeo tdk cdd::Tn10 (dckH R104Q, amkG T39A); assay: microbe, parasite or virus in culture; conditions: for minimum inhibitory concentration (MIC): strain β7347, dckH R104Q, amkG T39A
Procedure: as §1, §4, §3

[7] = system: Escherichia coli β7346 Δdeo tdk cdd::Tn10 (dckH D133E, amkG T39A); assay: microbe, parasite or virus in culture; conditions: for minimum inhibitory concentration (MIC): strain β7346, dckH D133E, amkG T39A
Procedure: as §1, §4, §3

[8] = system: Escherichia coli β7342 Δdeo tdk cdd::Tn10 (dckH R104Q, amkG wt); assay: microbe, parasite or virus in culture; conditions: for minimum inhibitory concentration (MIC): strain β7342, dckH R104Q, amkG wt
Procedure: as §1, §4, §3

[9] = system: Escherichia coli β7343 Δdeo tdk cdd::Tn10 (dckH D133E R104Q, amkG wt); assay: microbe, parasite or virus in culture; conditions: for minimum inhibitory concentration (MIC): strain β7343, dckH D133E R104Q, amkG wt
Procedure: as §1, §4, §3

[10] = system: Escherichia coli β7341 Δdeo tdk cdd::Tn10 (dckH D133E, amkG wt); assay: microbe, parasite or virus in culture; conditions: for minimum inhibitory concentration (MIC): strain β7341, dckH D133E, amkG wt
Procedure: as §1, §4, §3

[11] = system: Escherichia coli β7340 Δdeo tdk cdd::Tn10 (dckH wt, amkG wt); assay: microbe, parasite or virus in culture; conditions: for minimum inhibitory concentration (MIC): strain β7340, dckH wt, amkG wt
Procedure: as §1, §4, §3

[12] = system: Escherichia coli β7348 Δdeo tdk cdd::Tn10 (dckH D133E R104Q, amkG T39A); assay: microbe, parasite or virus in culture; conditions: for minimum inhibitory concentration (MIC): strain β7348, dckH D133E R104Q, amkG T39A
Procedure: as §1, §4, §3

[13] = system: Escherichia coli β7336 Δdeo tdk cdd::Tn10 pSUDCK2 (dck:D133E); conditions: strain β7336, dck allele D133E; 18 h 37° C., MS medium + IPTG
Procedure: The culture was then diluted 100 times in the same medium supplemented with IPTG and distributed on 96-well microplates in a final volume of 100 μl in a series of dilutions from to 2 to 2 nucleotide analogues. Each analogue was tested twice.
as §2, §3

[14] = Escherichia coli, read-out: minimum inhibitory concentration (MIC)

SMILES: Nc1nc(=O)n([C@H]2C[C@H](O)[C@@H](CO)O2)cc1Br [5-bromo-dC, 5-bromo-2-deoxycytidine]
- minimum inhibitory concentration (MIC) [1]: > (no toxicity could be detected at the highest analogue concentration, 1.28 mM)
- minimum inhibitory concentration (MIC) [2]: > (no toxicity could be detected at the highest analogue concentration, 1.28 mM)

SMILES: O=c1[nH]c(=O)n([C@H]2C[C@H](O)[C@@H](CO)O2)cc1Cl [5-chloro-dU]
- minimum inhibitory concentration (MIC) [1]: > (no toxicity could be detected at the highest analogue concentration, 1.28 mM)
- minimum inhibitory concentration (MIC) [2]: > (no toxicity could be detected at the highest analogue concentration, 1.28 mM)

SMILES: O=c1[nH]c(=O)n([C@H]2C[C@H](O)[C@@H](CO)O2)cc1CO [5-hm-dU]
- minimum inhibitory concentration (MIC) [1]: > (no toxicity could be detected at the highest analogue concentration, 1.28 mM)
- minimum inhibitory concentration (MIC) [2]: > (no toxicity could be detected at the highest analogue concentration, 1.28 mM)

SMILES: Nc1nc(=O)n([C@H]2C[C@H](O)[C@@H](CO)O2)cc1I [5-iodo-dC, 5-iodo-2′-deoxycytidine]
- MIC [3, 14]: > 1280 µM
- MIC [4, 14]: > 1280 µM
- MIC [5, 14]: ≤ 1.25 µM
- MIC [6, 14]: ≤ 1.25 µM
- MIC [7, 14]: ≤ 1.25 µM
- MIC [8, 14]: ≤ 1.25 µM
- MIC [9, 14]: ≤ 1.25 µM
- MIC [10, 14]: ≤ 1.25 µM
- MIC [11, 14]: > 1280 µM
- MIC [12, 14]: ≤ 1.25 µM

SMILES: O=c1[nH]c(=O)n([C@H]2C[C@H](O)[C@@H](CO)O2)cc1I [5-iodo-dU]
- minimum inhibitory concentration (MIC) [1]: > (no toxicity could be detected at the highest analogue concentration, 1.28 mM)
- minimum inhibitory concentration (MIC) [2]: > (no toxicity could be detected at the highest analogue concentration, 1.28 mM)

SMILES: Cc1cn([C@H]2C[C@H](O)[C@@H](CO)O2)c(N)nc1=O [5-methyl-disoC]
- minimum inhibitory concentration (MIC) [1]: > (no toxicity could be detected at the highest analogue concentration, 1.28 mM)
- minimum inhibitory concentration (MIC) [2]: > (no toxicity could be detected at the highest analogue concentration, 1.28 mM)

SMILES: Cc1cn([C@H]2C[C@H](O)[C@@H](CN)O2)c(=O)[nH]c1=O [5′-amino-dT]
- minimum inhibitory concentration (MIC) [1]: > (no toxicity could be detected at the highest analogue concentration, 1.28 mM)
- minimum inhibitory concentration (MIC) [2]: > (no toxicity could be detected at the highest analogue concentration, 1.28 mM)

SMILES: OC[C@H]1O[C@@H](n2c(O)nc3c(O)ncnc32)C[C@@H]1O [8ho′dI, 8-hydroxy-hypoxanthine deoxyribonucleoside]
- minimum inhibitory concentration (MIC) [3]: > (no toxicity could be detected at the highest analogue concentration, 1280 microM)
- minimum inhibitory concentration (MIC) [4]: > (no toxicity could be detected at the highest analogue concentration, 1280 microM)
- minimum inhibitory concentration (MIC) [5]: > (no toxicity could be detected at the highest analogue concentration, 1280 microM)
- minimum inhibitory concentration (MIC) [6]: > (no toxicity could be detected at the highest analogue concentration, 1280 microM)
- minimum inhibitory concentration (MIC) [7]: 1280 µM (≈ 343 µg/mL)
- minimum inhibitory concentration (MIC) [8]: > (no toxicity could be detected at the highest analogue concentration, 1280 microM)
- minimum inhibitory concentration (MIC) [9]: > (no toxicity could be detected at the highest analogue concentration, 1280 microM)
- minimum inhibitory concentration (MIC) [10]: 1280 µM (≈ 343 µg/mL)
- minimum inhibitory concentration (MIC) [11]: > (no toxicity could be detected at the highest analogue concentration, 1280 microM)
- minimum inhibitory concentration (MIC) [12]: > (no toxicity could be detected at the highest analogue concentration, 1280 microM)
- minimum inhibitory concentration (MIC) [13]: 1280 µM
- minimum inhibitory concentration (MIC) [1]: > (no toxicity could be detected at the highest analogue concentration, 1.28 mM)
- minimum inhibitory concentration (MIC) [2]: > (no toxicity could be detected at the highest analogue concentration, 1.28 mM)

SMILES: Nc1nc2c(ncn2[C@@H]2C[C@H](O)[C@@H](CO)O2)c(=O)o1 [d-oxanosine]
- minimum inhibitory concentration (MIC) [13]: 80 µM
- minimum inhibitory concentration (MIC) [1]: > (no toxicity could be detected at the highest analogue concentration, 1.28 mM)
- minimum inhibitory concentration (MIC) [2]: > (no toxicity could be detected at the highest analogue concentration, 1.28 mM)

SMILES: O=c1[nH]cnc2c1ncn2[C@H]1C[C@H](O)[C@@H](CO)O1 [dI, 2′-deoxyinoside]
- minimum inhibitory concentration (MIC) [3]: > (no toxicity could be detected at the highest analogue concentration, 1280 microM)
- minimum inhibitory concentration (MIC) [4]: > (no toxicity could be detected at the highest analogue concentration, 1280 microM)
- minimum inhibitory concentration (MIC) [5]: > (no toxicity could be detected at the highest analogue concentration, 1280 microM)
- minimum inhibitory concentration (MIC) [6]: > (no toxicity could be detected at the highest analogue concentration, 1280 microM)
- minimum inhibitory concentration (MIC) [7]: ≦1.25 microM
- minimum inhibitory concentration (MIC) [8]: > (no toxicity could be detected at the highest analogue concentration, 1280 microM)
- minimum inhibitory concentration (MIC) [9]: 1280 µM (≈ 323 µg/mL)
- minimum inhibitory concentration (MIC) [10]: ≦1.25 microM
- minimum inhibitory concentration (MIC) [11]: > (no toxicity could be detected at the highest analogue concentration, 1280 microM)
- minimum inhibitory concentration (MIC) [12]: 1280 µM (≈ 323 µg/mL)
- minimum inhibitory concentration (MIC) [13]: 1 µM and 1.25 µM
- minimum inhibitory concentration (MIC) [1]: 320 µM
- minimum inhibitory concentration (MIC) [2]: > (no toxicity could be detected at the highest analogue concentration, 1.28 mM)

SMILES: NC(=O)c1cn([C@H]2C[C@H](O)[C@@H](CO)O2)cn1 [dY, 1-(2′-deoxyribofuranosyl)imidazole-4-carboxamide]
- minimum inhibitory concentration (MIC) [3]: > (no toxicity could be detected at the highest analogue concentration, 1280 microM)
- minimum inhibitory concentration (MIC) [4]: > (no toxicity could be detected at the highest analogue concentration, 1280 microM)
- minimum inhibitory concentration (MIC) [5]: > (no toxicity could be detected at the highest analogue concentration, 1280 microM)
- minimum inhibitory concentration (MIC) [6]: > (no toxicity could be detected at the highest analogue concentration, 1280 microM)
- minimum inhibitory concentration (MIC) [7]: 1280 µM (≈ 291 µg/mL)
- minimum inhibitory concentration (MIC) [8]: > (no toxicity could be detected at the highest analogue concentration, 1280 microM)
- minimum inhibitory concentration (MIC) [9]: > (no toxicity could be detected at the highest analogue concentration, 1280 microM)
- minimum inhibitory concentration (MIC) [10]: > (no toxicity could be detected at the highest analogue concentration, 1280 microM)
- minimum inhibitory concentration (MIC) [11]: > (no toxicity could be detected at the highest analogue concentration, 1280 microM)
- minimum inhibitory concentration (MIC) [12]: > (no toxicity could be detected at the highest analogue concentration, 1280 microM)
- minimum inhibitory concentration (MIC) [1]: > (no toxicity could be detected at the highest analogue concentration, 1.28 mM)
- minimum inhibitory concentration (MIC) [2]: > (no toxicity could be detected at the highest analogue concentration, 1.28 mM)

SMILES: Nc1ccn([C@H]2CC[C@@H](CO)O2)c(=O)n1 [ddC]
- minimum inhibitory concentration (MIC) [1]: > (no toxicity could be detected at the highest analogue concentration, 1.28 mM)
- minimum inhibitory concentration (MIC) [2]: > (no toxicity could be detected at the highest analogue concentration, 1.28 mM)

SMILES: Cc1cn([C@H]2CC[C@@H](CO)O2)c(=O)[nH]c1=O [ddT]
- minimum inhibitory concentration (MIC) [1]: > (no toxicity could be detected at the highest analogue concentration, 1.28 mM)
- minimum inhibitory concentration (MIC) [2]: > (no toxicity could be detected at the highest analogue concentration, 1.28 mM)

SMILES: O=c1ccn([C@H]2CC[C@@H](CO)O2)c(=O)[nH]1 [ddU]
- minimum inhibitory concentration (MIC) [1]: > (no toxicity could be detected at the highest analogue concentration, 1.28 mM)
- minimum inhibitory concentration (MIC) [2]: > (no toxicity could be detected at the highest analogue concentration, 1.28 mM)
